Patent publication US20110021458A1, “PHARMACEUTICAL COMPOSITIONS CONTAINING AN INCLUSION COMPLEX FORMED BY DISULFIRAM AND A CYCLODEXTRINE, WHICH CAN BE USED IN THE TREATMENT OF ALCOHOL AND COCAINE DEPENDENCE” (priority 2007, published 2011)

How the values were obtained:
[1] = Pharmacokinetics in rats after SC administration (plasma total DDC); conditions: rat, in vivo, 15 mg/kg
Procedure: FIG. 19: Effect of subcutaneous administration in rats, 15 mg/kg of DSF to the form of binary mixtures in water 25:75 (A); in miglyol (B) and (C) DSF free water on the concentrations Plasma total DDC in time.
In addition to the histopathological studies in rats pharmacokinetic studies were conducted that measured the plasma concentrations of metabolites of DSF (DDC and MeDDC) after administration SC (FIG. 19) and/or IM (FIG. 20), 15 mg/kg weight of DSF to the form of binary mixtures.
It was quantified the plasma concentration of total DDC that corresponds to the sum of the metabolites and MeDDC DDC, and it was used as a parameter for the analysis of the results shown below.

[2] = system: rat skin in the areas of subcutaneous administration; test: Histopathological study of the subcutaneous administration area; assay type: in vivo; conditions: for histological findings in rat skin: SC 15 mg/kg of DSF
Procedure: FIGS. 3 to 10: histological cuts of rat skin in the areas of subcutaneous administration (SC), 15 mg/kg of DSF to the form of DSF physiological serum (PS) (A); Complex DSF-CD in SF (B), 25:75 Binary Mixture in SF (C) and control with SF (D). The histological were obtained at different times post-administration of each test. FIG. 3 is up to 8 hours post-administration; FIG. 4, to 24 hours post-administration; FIG. 5, at 48 hours post-administration; FIG. 6 to 72 hours post-administration; FIG. 7, 96 hours post-administration; FIG. 8, to 120 hours post-administration; FIG. 9, to 144 hours post administration and FIG. 10 corresponds to 168 hours post-administration.
The histopathological evaluation was performed for subcutaneous (SC) and intramuscular (IM) injections of DSF free, in the form of CD-DSF Complex and in the form of binary mixture in ratios of 25:75 and 40:60. water, water with 15% glycerin, miglyol and ethyl oleate were used as excipients.
15 mg/kg of free DSF, DSF Complex-CD, Mixed Binary 25:75 and physiological saline (SF) were administered subcutaneously (SC).
Comparative histological study between physiological saline and DSF in its various forms of administration are seen in FIG. 3 to No. 10.

plasma levels of active metabolites at 168 hours post-administration [1]: not detected | Histopathological lesions, conclusion ([2]; SC administration): severe Histopathological lesions | desestructuration of the collagen fibers (summary) ([2]; SC, rat skin, 8, 24 and 48 hours from inoculation): mild, moderate to severe | presence of inflammatory cells, superficial vascular plexus hyperemia and hemorrhage in subcutis (summary) ([2]; SC, rat skin, over the controls of the study): moderate to severe
SMILES: CCN(CC)C(=S)SSC(=S)N(CC)CC [free DSF, 1-(diethylthiocarbamoyldisulfanyl)-N,N-diethyl-methanethioamide]
histological findings in rat skin ([2]; 8 hours post-administration): severe hyperemia was observed in the deep vascular plexus with bleeding in hypodermis | histological findings in rat skin ([2]; 24 hours post-administration): severe hyperemia was observed in both plexus, abundant presence of inflammatory cells and hemorrhage in hypodermis | histological findings in rat skin ([2]; 48 hours post-administration): severe desestructuration of the collagen fibers, hyperemia of deep vascular plexus and moderate bleeding in hypodermis | histological findings in rat skin ([2]; 72 hours post-administration): moderate hyperemia was observed in both plexus, with moderate presence of inflammatory cells and hemorrhage in hypodermis | histological findings in rat skin ([2]; 96 hours post-administration): moderate hyperemia of deep vascular plexus, with hemorrhage in hypodermis and severe presence of inflammatory cells | histological findings in rat skin ([2]; 120 hours post-administration): moderate hyperemia of deep vascular plexus, with slight presence of inflammatory cells and desestructuration of collagen fibers | histological findings in rat skin ([2]; 144 hours post-administration): moderate hyperemia of deep vascular plexus and low presence of inflammatory cells | histological findings in rat skin ([2]; 168 hours post-administration): moderate hyperemia of deep vascular plexus | Hyperemia of deep vascular plexus (summary) ([2]; SC, rat skin, 8-168 hours): severe in biopsies of 8 and 24 hours and mild to moderate in subsequent checks
